Patent US9839642B2, “Beta-tetrazolyl-propionic acids as metallo-beta-lactamase inhibitors” (priority 2014, dated 2017)
Like-named read-outs stand apart in the source and are kept apart here.

Columns and labels:
[1] = target: VIM-1 (Pseudomonas aeruginosa, UniProt A0A0F7KYQ8); assay: Enzyme activity: determination of IC50, fluorescence assay with CCF2-FA substrate; type: biochemical; conditions: CCF2-FA 1.25 μM, 2 hours at 25° C., read-out: VIM1 IC50
Summary of the method: (§1)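 Enzyme at 1 pM (NDM-1), 2 pM (IMP-1) or 30 pM (VIM-1) was incubated with inhibitor (20 μM to 0.00063 μM) and 1.25 μM CCF2-FA in 100 mM KH2PO4 pH 7, 0.005% Tween-20, 10 μM ZnSO4 for 2 hours at 25° C. Fluorescence was read at ex 405/em 460 nm; IC50 from 4-parameter fit.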

[2] = target: NDM-1 (Klebsiella pneumoniae, UniProt C7C422); assay: as above; type: biochemical; conditions: CCF2-FA 1.25 μM, 2 hours at 25° C., read-out: NDM1 IC50
Summary of the method: as §1

[3] = target: IMP-1 (Serratia marcescens, UniProt P52699); assay: as above; type: biochemical; conditions: CCF2-FA 1.25 μM, 2 hours at 25° C., read-out: IMP1 IC50
Summary of the method: as §1

[4] = system: Klebsiella pneumoniae expressing VIM-1 (IHMA599644); assay: Antibiotic potentiation activity: synergistic concentration (MITC95) with imipenem, growth by OD600; type: cell-based
Summary of the method: (§2)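 Colonies from overnight agar plates (35 °C) were suspended in saline and diluted 1:100 into 1.1× CAMHB. Inhibitor (final 200 μM to 0.195 μM) was combined with imipenem at 1 or 4 μg/ml, incubated 22–24 h at 35 °C, and absorbance read; MITC95 is the lowest inhibitor concentration giving 95% growth inhibition.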

[5] = system: Serratia marcescens expressing IMP-1 (CL5741); assay: as above; type: cell-based
Summary of the method: as §2

[6] = system: Escherichia coli expressing NDM-1 (CLB30016); assay: as above; type: cell-based
Summary of the method: as §2

[7] = K. pneumoniae IHMA599644 (VIM-1), 95% inhibition of growth
[8] = S. marcescens CL5741 (IMP-1), 95% inhibition of growth
[9] = E. coli CLB30016 (NDM-1), 95% inhibition of growth

Sequence of NDM-1 (C7C422 29-270, looked up, species assumed): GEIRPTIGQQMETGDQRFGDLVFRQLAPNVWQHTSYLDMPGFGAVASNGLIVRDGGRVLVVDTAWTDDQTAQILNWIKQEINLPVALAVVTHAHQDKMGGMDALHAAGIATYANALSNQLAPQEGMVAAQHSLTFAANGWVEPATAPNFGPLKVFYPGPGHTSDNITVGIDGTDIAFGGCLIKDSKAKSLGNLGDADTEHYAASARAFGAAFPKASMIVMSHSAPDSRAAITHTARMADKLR
Sequence of IMP-1 (P52699 19-246, looked up, species assumed): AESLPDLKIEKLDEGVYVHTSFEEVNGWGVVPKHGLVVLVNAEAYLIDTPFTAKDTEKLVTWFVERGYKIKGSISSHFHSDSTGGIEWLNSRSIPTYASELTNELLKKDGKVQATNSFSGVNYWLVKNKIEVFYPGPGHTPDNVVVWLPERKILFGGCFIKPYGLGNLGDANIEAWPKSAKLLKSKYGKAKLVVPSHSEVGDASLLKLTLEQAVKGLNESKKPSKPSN

| SMILES | IC50 ([1]; enzyme 30 pM) | IC50 ([2]; enzyme 1 pM) | IC50 ([3]; enzyme 2 pM) | VIM1 KP599644 MITC95 ([4]; 95% inhibition of bacterial growth, strain IHMA599644) | IMP1 SM5741 MITC95 ([5]; 95% inhibition of bacterial growth, strain CL5741) | NDM1 EC30016 MITC95 ([6]; 95% inhibition of bacterial growth, strain CLB30016) | IC50 ([1]; VIM-1 enzyme 30 pM) | IC50 ([2]; NDM-1 enzyme 1 pM) | IC50 ([3]; IMP-1 enzyme 2 pM) | VIM1 KP599644 MITC95 [4, 7] | IMP1 SM5741 MITC95 [5, 8] | NDM1 EC30016 MITC95 [6, 9] |
| --- | --- | --- | --- | --- | --- | --- | --- | --- | --- | --- | --- | --- |
| CCC[C@H](C(=O)O)[C@H](Cc1ccc(N2CCN3CCCC3C2)cc1)c1nn[nH]n1 (stereo partly drawn) [Example 232, (2S)-2-[(1S)-2-[4-(hexahydropyrrolo[1,2-a]pyrazin-2(1H)-yl)phenyl]-1-(2H-tetrazol-5-yl)ethyl]pentanoic acid] | 0.09 µM | 0.18 µM | 0.42 µM | 50 µM | 12.5 µM | 12.5 µM | – | – | – | – | – | – |
| CC(C)(C)[C@H](C(=O)O)[C@H](Cc1ccccc1)c1nnn[nH]1 [Example 258, (2R,3S)-2-(tert-butyl)-4-phenyl-3-(1H-tetrazol-5-yl)butanoic acid] | – | – | – | – | – | – | 0.1 µM | 0.091 µM | 0.035 µM | 100 µM | 2.3 µM | 11 µM |
| CCC[C@H](C(=O)O)[C@H](Cc1ccccc1F)c1nnn[nH]1 [Example 259, (S)-2-((S)-2-(2-fluorophenyl)-1-(1H-tetrazol-5-yl)ethyl)pentanoic acid] | – | – | – | – | – | – | 0.0042 µM | 0.037 µM | 0.93 µM | 12.5 µM | 12.5 µM | 9.4 µM |
| CCC[C@H](C(=O)O)[C@H](Cc1cccc(F)c1)c1nnn[nH]1 [Example 260, (2S)-2-[(1S)-2-(3-fluorophenyl)-1-(1H-tetrazol-5-yl)ethyl]pentanoic acid] | – | – | – | – | – | – | 0.0037 µM | 0.075 µM | 0.87 µM | 18.8 µM | 12.5 µM | 6.2 µM |
| CCC[C@H](C(=O)O)[C@H](Cc1ccc(F)cc1)c1nnn[nH]1 [Example 261, (2S)-2-[(1S)-2-(4-fluorophenyl)-1-(1H-tetrazol-5-yl)ethyl]pentanoic acid] | – | – | – | – | – | – | 0.0038 µM | 0.11 µM | 0.91 µM | 12.5 µM | 12.5 µM | 9.4 µM |
| CCC[C@H](C(=O)O)[C@H](Cc1ccc(F)cc1F)c1nnn[nH]1 [Example 262, (2S)-2-[(1S)-2-(2,4-difluorophenyl)-1-(1H-tetrazol-5-yl)ethyl]pentanoic acid] | – | – | – | – | – | – | 0.0031 µM | 0.07 µM | 1.3 µM | 12.5 µM | 18.8 µM | 6.2 µM |
| CCC[C@H](C(=O)O)[C@H](Cc1ccc(Cl)cc1)c1nnn[nH]1 [Example 263, (2S)-2-[(1S)-2-(4-chlorophenyl)-1-(1H-tetrazol-5-yl)ethyl]pentanoic acid] | – | – | – | – | – | – | 0.0024 µM | 0.057 µM | 0.43 µM | 9.4 µM | 12.5 µM | 9.4 µM |
| CCC[C@H](C(=O)O)[C@H](Cc1cccnc1)c1nnn[nH]1 [Example 264, (S)-2-((S)-2-(pyridin-3-yl)-1-(1H-tetrazol-5-yl)ethyl)pentanoic acid] | – | – | – | – | – | – | 0.016 µM | 0.37 µM | 7.1 µM | 18.8 µM | 100 µM | 2.3 µM |
| CCC[C@H](C(=O)O)[C@H](C[C@@H](C)c1ccccc1)c1nnn[nH]1 [Example 265, (2S,3S,5R)-5-phenyl-2-propyl-3-(1H-tetrazol-5-yl)hexanoic acid] | – | – | – | – | – | – | 0.024 µM | 0.13 µM | 1.8 µM | 75 µM | 50 µM | 18.8 µM |
| CCC[C@H](C(=O)O)[C@H](CCc1ccccc1)c1nnn[nH]1 [Example 266, (2S,3S)-5-phenyl-2-propyl-3-(1H-tetrazol-5-yl)pentanoic acid] | – | – | – | – | – | – | 0.02 µM | 0.19 µM | 1 µM | 25 µM | 38 µM | 12.5 µM |
| CCC[C@H](C(=O)O)[C@H](Cc1cc(C(F)(F)F)cc(C(F)(F)F)c1)c1nnn[nH]1 [Example 269, (2S)-2-[(1S)-2-[3,5-bis(trifluoromethyl)phenyl]-1-(1H-tetrazol-5-yl)ethyl]pentanoic acid] | – | – | – | – | – | – | 0.00076 µM | 0.036 µM | 1.5 µM | 38 µM | 38 µM | 18.8 µM |
| CCC[C@H](C(=O)O)[C@H](Cc1ccc2nsnc2c1)c1nnn[nH]1 [Example 271, (2S)-2-[(1S)-2-(2,1,3-benzothiadiazol-5-yl)-1-(1H-tetrazol-5-yl)ethyl]pentanoic acid] | – | – | – | – | – | – | 0.0011 µM | 0.084 µM | 0.65 µM | 12.5 µM | 50 µM | 6.2 µM |
| CCC[C@H](C(=O)O)[C@H](Cc1cccc2nsnc12)c1nnn[nH]1 [Example 272, (2S)-2-[(1S)-2-(2,1,3-benzothiadiazol-4-yl)-1-(1H-tetrazol-5-yl)ethyl]pentanoic acid] | – | – | – | – | – | – | 0.00035 µM | 0.012 µM | 0.6 µM | 9.4 µM | 38 µM | 4.7 µM |
| CCC[C@H](C(=O)O)[C@H](Cc1ccc2nonc2c1)c1nnn[nH]1 [Example 273, (2S)-2-[(1S)-2-(2,1,3-benzoxadiazol-5-yl)-1-(1H-tetrazol-5-yl)ethyl]pentanoic acid] | – | – | – | – | – | – | 0.0019 µM | 0.26 µM | 2.2 µM | 9.4 µM | 150 µM | 12.5 µM |
| CCC[C@H](C(=O)O)[C@H](Cc1ccc(C(=O)N2CCNCC2)cc1)c1nnn[nH]1 [Example 275, (2S)-2-[(1S)-2-[4-(piperazin-1-ylcarbonyl)phenyl]-1-(1H-tetrazol-5-yl)ethyl]pentanoic acid] | – | – | – | – | – | – | 0.041 µM | 0.039 µM | 0.52 µM | 38 µM | 25 µM | 9.4 µM |
| CCC[C@H](C(=O)O)[C@H](Cc1ccc(C(=O)NCCN)cc1)c1nnn[nH]1 [Example 276, (2S)-2-[(1S)-2-{4-[(2-aminoethyl)carbamoyl]phenyl}-1-(1H-tetrazol-5-yl)ethyl]pentanoic acid] | – | – | – | – | – | – | 0.0084 µM | 1.1 µM | 5.4 µM | 25 µM | 100 µM | 12.5 µM |
| CCC[C@H](C(=O)O)[C@H](Cc1ccc(C(=O)N(C)C)cc1)c1nnn[nH]1 [Example 277, (2S)-2-[(1S)-2-[4-(dimethylcarbamoyl)phenyl]-1-(1H-tetrazol-5-yl)ethyl]pentanoic acid] | – | – | – | – | – | – | 0.013 µM | 0.01 µM | 0.13 µM | 75 µM | 12.5 µM | 25 µM |
